Entries after “also recorded” stand apart in the source; their conditions may differ.
Key:
HUVECs = experiment: Vascular cell tubule formation (angiogenesis); format: cell-based, human; details: different concentrations
Method: Vascular cell tubule formation was assessed with HUVECs in the absence or presence of different concentrations of the compounds of Formula I or Formula II.
Matrigel matrix (50 μl) was added to 96-well plates for 60 min at 37° C. to allow gel formation. HUVEC cells (1×10^5 cells/ml in 1:1 EGM/EBM2 media) was introduced to the plates without or with Galectin-3 (2 μg/ml) or different concentrations of compound inhibitors for 24 hr at 37° C. Endothelial cell tube formation was examined with Leica DMLA Laser Microscope. The total number of branching points and the sum of the lengths of tubes were calculated.

[1] = system: galectin-3 knockout (Gal3KO) MDA-MB-231 cells; experiment: Triple-negative breast cancer cell adhesion to basement matrix, galectin-3 knockout; format: cell-based, human; details: galectin-3 knockout by CRISPR/Cas9 (FIG. 15C, 15D)
Method: (§1) Nanty-six well plates were coated with 50 μl Matrigel (1:30 diluted in PBS) at 37° C. for 1 hour. Cancer cells, pre-labelled with fluorescent die DiI at 37° C. for 20 minutes, were washed twice with PBS and resuspended into 3×10^4 cells/ml in serum-free medium. The matrix-coated 96-well plates were washed twice with PBS before introduction of […] cell suspension with different concentrations of the inhibitors or PBS/DMSO (control) for 1 hour at 37° C. The plates were washed twice with PBS before three randomly selected Field of Views (FOVs) were recorded by fluorescence microscope and number of adhesion cells were quantified by Image J.
(§2) MDAMB-231 or PANC-1 cells were seeded into 6-well plate (2×10^5 cells) and cultured at 37° C. for 24 hour. Galectin-3 CRISPR Cas9 Knockout plasmid (2 μg) and galectin-3 HDR plasmid (2 μg) was mixed with Plasmid Transfection Medium (21 μl) for 5 minutes before addition to a mixture of lipofectamine STEM Transfection Reagent (STEM00001) (1 μl) and Plasmid Transfection Medium (25 μl) for 10 minutes at room temperature. The cells in the 6-well plates were washed and introduced with the Plasmid DNA/Lipofectamine STEM Transfection Reagent complex at 37° C. for 24 hours. […] Successful co-transfection of the CRISPR/Cas9 KO Plasmid and HDR Plasmid was confirmed by expression of red fluorescence protein of the cells. […]

Galectin-3 = molecular target: T1, Galectin-3 (Homo sapiens, UniProt P17931); experiment: Binding affinity to Galectin-3 by Tryptophan Fluorescence Spectroscopy (TFS); details: Galectin-3 10 μM, titration 0 to 224 μM
T1 construct: made in house; host or cells: E. coli
Method: (§3) The binding affinity of the compounds of Formula I and Formula II to Galectin-3 is assessed by Tryptophan Fluorescence Spectroscopy (TFS). The compounds of Formula I and Formula II bind to Galectin-3 with binding affinity (KD) at low μM;
as §3, with “FIG. 2A and FIG. 2B show analysis of the binding affinity of the compounds of Formula I and Formula II to Galectin-3. The binding” for “The binding”, “at low μM.” for “at low μM;”
The binding affinity of the inhibitors to Galectin-3 was determined by Intrinsic Tryptophan Fluorescence Spectroscopy (TFS) exactly as we described recently (Sindrewicz, P., et al., Intrinsic tryptophan fluorescence spectroscopy reliably determines galectin-ligand interactions. Sci Rep, 2019. 9(1): p. 11851, herein incorporated by reference). The Galectin-3 concentration used was 10 μM and the inhibitor titration concentrations were from 0 to 224 μM. DMSO/control buffer (PBS with 2 mM EDTA) titrations were performed and used for background subtraction.
The binding affinities of the compounds of Formula I and compounds of Formula II to Galectin-3 was determined by Tryptophan Fluorescence spectroscopy (TFS) [Sindrewicz, P., et al., Intrinsic tryptophan fluorescence spectroscopy reliably determines galectin-ligand interactions. Scientific Reports, 2019. 9(1): p. 11851, herein incorporated by reference] The Galectin-3 concentration used was 10 μM and the compounds of Formula I and compounds of Formula II titration concentrations were from 0 to 224 μM. DMSO/control buffer (PBS with 2 mM EDTA) titrations were performed and used for background subtraction.

H1975 cell = experiment: Lung cancer cell adhesion to basement matrix; format: cell-based, human; details: for IC50: Homo sapiens, NCI-H1975; for H1975 cell adhesion to matrix: different concentrations
Method: as §1

PANC1 cell = experiment: Pancreatic cancer cell adhesion to basement matrix; format: cell-based, human; details: for adhesion of control PANC1 cells: non-transfected cells (FIG. 16C, 16D); for PANC1 cell adhesion to matrix: different concentrations (FIG. 16A, 16B)
Method: as §1

[2] = system: galectin-3 knockout (Gal3KO) PANC1 cells; experiment: Pancreatic cancer cell adhesion to basement matrix, galectin-3 knockout; format: cell-based, human; details: galectin-3 knockout by CRISPR/Cas9 (FIG. 16C, 16D)
Method: as §1, §2

MDA-MB-231 cell = experiment: Triple-negative breast cancer cell adhesion to basement matrix; format: cell-based, human; details: for adhesion of control (Con) MDA-MB-231 cells: non-transfected cells (FIG. 15C, 15D); for MDA-MB-231 cell adhesion to matrix: different concentrations (FIG. 15A, 15B)
Method: as §1

SW620^Gal3+ cells = experiment: Tumour cell adhesion to laminin; format: cell-based, human; details: 10 μM; Galectin-3-expressing SW620^Gal3+ cells
Method: (§4) White wall 96-well plates were coated with laminin (20 μg/ml) in coating buffer (15 mM Na2CO3 17 mM NaHCO3 pH 9.6) overnight at room temperature. ZsGreen- and luciferase-transfected SW620Gal3+, SW620Gal-3, or ACA19+ cells (5×10^5 cells/ml) were pre-incubated without or with 10 μM of the compound of Formula I or the compound of Formula II for 10 minutes before added into laminin-coated plates for 30 min at 37° C. The plates were washed twice with PBS before lysed by PLB for 5 min on a shaker. Luciferase Assay Reagent was then added before luminescence was measured using Tecan Infinite F200 microplate reader.
(§5) Nanty-six well plates were coated with matrix protein laminin (20 μg/ml) in coating buffer overnight. ZsGreen- and luciferase-labelled SW620Gal3− and SW620Gal3+ cells (5×10^5 cells/ml) were mixed without or with 10 μM inhibitors for 15 minutes before introduced to the laminin-coated plates for 30 minutes at 37° C. The plates were washed twice with PBS and the bound cells were lysed by Passive lysis buffer. After addition of Luciferase Assay Reagent (LAR) for 10 minutes, the luminescence intensity in the wells was measured by a microplate reader.

SW620^Gal3− cells = experiment: Tumour cell adhesion to laminin; format: cell-based, human; details: 10 μM; Galectin-3-suppressed SW620^Gal3− cells
Method: as §4, §5

T1 sequence (P17931 whole entry): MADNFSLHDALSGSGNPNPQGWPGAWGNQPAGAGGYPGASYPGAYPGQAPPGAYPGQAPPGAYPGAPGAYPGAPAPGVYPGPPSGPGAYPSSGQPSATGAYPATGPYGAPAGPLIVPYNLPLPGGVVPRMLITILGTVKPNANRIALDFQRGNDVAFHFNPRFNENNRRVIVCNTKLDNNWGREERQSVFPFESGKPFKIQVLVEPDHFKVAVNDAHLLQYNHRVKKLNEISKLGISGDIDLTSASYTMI

Structure (SMILES) | HUVEC tubule formation, tubule numbers (HUVECs) | HUVEC tubule formation, vascular tubule length (HUVECs) | adhesion of Gal3KO MDA-MB-231 cells [1] | Kd (Galectin-3) [µM] | binding affinity (Kd) to Galectin-3 (Galectin-3) | IC50 (H1975 cell) [µM] | H1975 cell adhesion to matrix (H1975 cell) | adhesion of control PANC1 cells (PANC1 cell) | PANC1 cell adhesion to matrix (PANC1 cell) | adhesion of Gal3KO PANC1 cells [2] | adhesion of control (Con) MDA-MB-231 cells (MDA-MB-231 cell) | MDA-MB-231 cell adhesion to matrix (MDA-MB-231 cell) | adhesion to matrix protein component laminin (SW620^Gal3+ cells) | adhesion to matrix protein component laminin (SW620^Gal3− cells)
C[C@H]1COc2c(N3CCN(C)CC3)c(F)cc3c(=O)c(C(=O)NNc4ccc(N)cc4)cn1c23 [Formula I] | dose-dependently inhibition | dose-dependently inhibition | lost their inhibitory effect | 18 | low μM | > 20 | dose-dependently inhibits | significant reduction; also recorded: significant inhibition | dose-dependently inhibits | lost their inhibitory effect | significant reduction; also recorded: significant inhibition | dose-dependent inhibition | significantly inhibits | much reduced effect
C[C@H]1COc2c(N3CCN(C)CC3)c(F)cc3c(=O)c(C(=O)NNc4cccc(N)c4)cn1c23 [Formula II] | dose-dependently inhibition | dose-dependently inhibition | lost their inhibitory effect | 30 | low μM | ~10 | dose-dependently inhibits | significant reduction; also recorded: significant inhibition | dose-dependently inhibits | lost their inhibitory effect | significant reduction; also recorded: significant inhibition | dose-dependent inhibition | significantly inhibits | much reduced effect

— patent US20260137696A1, “Compositions Comprising an Inhibitor of Galectin-3” (University of Liverpool, priority 2023, published 2026)
